Reference: patent publication US4837221A, “Methods of treating tumors susceptible to necrosis” (Efamol Ltd., priority 1984, dated 1989)
Several values for one entry are separate records, joined by “and”; a condition that tells them apart may be missing. Identical values can stand only once. Entries after “also recorded” stand apart in the source; their conditions may differ.

Tests used:
brain vascular lining = test: Cerebral photosensitisation: Evans blue in the brain after white light to the cranium; format: in vivo, mouse; conditions: 0.033 μM/kg i.v., 20J/cm^2 white light; dye 4 hours after exposure, measured 1 hour later; groups of 5 mice
Method: Normally, very little is found, and this is largely dye still circulating in the blood 1 hour after injection, and not in the brain substance itself. An increase is produced by agents that damage the brain vascular lining, allowing dye to enter the brain substance.

[1] = test system: transplantable mouse tumour originating in plasma cells; test: Depth of tumour necrosis after photosensitising drug and illumination (10J/cm^2) in mice; format: in vivo; conditions: for Depths of tumour necrosis: 10J/cm^2 at 660nm, individual values; for effectiveness in DMSO versus alkali (in words): DMSO compared with alkali (NaOH); for effectiveness as photosensitiser for tumour tissue (in words): mouse assay
Method: The photosensitising drug is given intravenously in aqueous medium or intraperitoneally in DMSO, the tumour exposed to light at the appropriate wavelength and the depth of tumour necrosis measured. […] Results are shown in graph. The relative potency is determined by comparing amounts of drugs required to produce equal effects.
A preliminary comparison was made. […] The light dose was 10J/cm^2 at 660nm.

depilated skin = test: Skin photosensitisation: increase in skin thickness after illumination; format: in vivo, mouse
Method: The increase in skin thickness was measured 4 hours after illumination.

cranium (brain) of mice = test: Cerebral photosensitisation: deaths within 48 hours after white light to the cranium; format: in vivo, mouse; conditions: 0.033 μM/kg i.v., 24 hours later 20J/cm^2 white light to cranium
Method: Deaths within 48 hours (due to acute cerebral oedema) were: […]

Solubility = format: physicochemical
[2] = test system: transplantable mouse tumour originating in plasma cells; test: Depth of tumour necrosis after photosensitising drug and illumination (10J/cm^2) in mice; format: in vivo; conditions: for Necrosis (after 10J/cm^2), depth: ± S.E.M.

Oc1ccc(-c2c3nc(c(-c4ccc(O)cc4)c4ccc([nH]4)c(-c4ccc(O)cc4)c4nc(c(-c5ccc(O)cc5)c5ccc2[nH]5)C=C4)C=C3)cc1 [HK7, 5,10,15,20-tetra (4-hydroxyphenyl) porphyrin]
amount of Evans blue in the brain (brain vascular lining): 23.6 ± 3.65 μg dye/brain
Depths of tumour necrosis ([1]; 33 μM/kg, NaOH-DMSO): 0.5 mm and 1.5 mm and 4.5 mm
Depths of tumour necrosis ([1]; 67 μM/kg, DMSO): 4 mm and 5 mm and 6 mm
effectiveness in DMSO versus alkali (in words) [1]: rather more effective administered in DMSO than in alkali
effectiveness as photosensitiser for tumour tissue (in words) [1]: more effective photosensitiser for tumour tissue in animal assay than is HpD
skin photosensitisation, by 1 week (depilated skin; 1 week, equimolar doses, 10J/cm^2, HK7 vs HpD): little difference
skin photosensitisation, by 2 weeks (depilated skin; 2 weeks, maximum dose, 10J/cm^2): no longer sensitises to this dose of light
skin photosensitisation, 1 day after porphyrin injection (depilated skin; 1 day, equimolar doses, 10J/cm^2 (625nm HpD, 656nm HK7)): more potent skin sensitiser than HpD
skin photosensitisation, potency and persistence (depilated skin; HK7 compared with HpD, overall): less persistant than that caused by HpD; also recorded: more potent skin photosensitiser than HpD, but that the effect is more transient
Deaths within 48 hours (due to acute cerebral oedema) (cranium (brain) of mice): 0/5
solubility in neutral aqueous media (Solubility): relatively insoluble in neutral aqueous media
Necrosis (after 10J/cm^2), depth ([2]; 6.25 μM/kg, DMSO, 656 nm): 1.17 ± 0.31 mm and 0.85 ± 0.38 mm
Necrosis (after 10J/cm^2), depth ([2]; 12.5 μM/kg, DMSO, 656 nm): 2.86 ± 0.26 mm and 2.50 ± 0.52 mm
Necrosis (after 10J/cm^2), depth ([2]; 12.5 μM/kg, NaOH, 654 nm): 2.40 ± 0.10 mm
Necrosis (after 10J/cm^2), depth ([2]; 25 μM/kg, DMSO, 656 nm): 3.54 ± 0.48 mm and 2.63 ± 0.56 mm
Necrosis (after 10J/cm^2), depth ([2]; 25 μM/kg, NaOH, 654 nm): 3.64 ± 0.39 mm
Necrosis (after 10J/cm^2), depth ([2]; 25 μM/kg, NaOH, 669 nm): 2.75 ± 0.25 mm and 2.38 ± 0.24 mm
Necrosis (after 10J/cm^2), depth ([2]; 50 μM/kg, DMSO, 656 nm): 5.06 ± 0.48 mm
Necrosis (after 10J/cm^2), depth ([2]; 50 μM/kg, NaOH, 669 nm): 3.32 ± 0.63 mm and 3.25 ± 0.37 mm
effectiveness in tumour necrosis (in words) ([2]; 6.25 μm/kg): reasonably effective
tumour sensitisation at the dose of the cerebral test (in words) ([2]; 24 hours after dose, see graph): substantial tumour sensitisation
amount of drug required to produce equal effect (HK7 vs HpD) ([2]; i.v., 10J/cm^2, 630nm HpD, 658nm HK7): ~0.0125 µM/kg

Oc1ccc(-c2c3nc(c(-c4ccc(O)cc4)c4ccc([nH]4)c(-c4ccc(O)cc4)c4nc(c(-c5ccc(O)cc5)c5ccc2[nH]5)C=C4)C=C3)cc1 [HK7.4EtOH]
Depths of tumour necrosis ([1]; 33 μM/kg, NaOH-DMSO): 0.25 mm and 0.5 mm and 0.75 mm and 2 mm
Depths of tumour necrosis ([1]; 67 μM/kg, DMSO): 3.75 mm and 4 mm (2×) and 5 mm

Oc1ccc(-c2c3nc(c(-c4ccc(O)cc4)c4ccc([nH]4)c(-c4ccc(O)cc4)c4nc(c(-c5ccc(O)cc5)c5ccc2[nH]5)C=C4)C=C3)cc1 [K-HK7]
Necrosis (after 10J/cm^2), depth ([2]; 12.5 μM/kg, DMSO, 656 nm): 2.50 ± 0.44 mm
Necrosis (after 10J/cm^2), depth ([2]; 25 μM/kg, DMSO, 656 nm): 3.32 ± 0.59 mm
Necrosis (after 10J/cm^2), depth ([2]; 50 μM/kg, NaOH, 654 nm): 5.06 ± 0.12 mm

Oc1ccc(-c2c3nc(c(-c4ccc(O)cc4)c4ccc([nH]4)c(-c4ccc(O)cc4)c4nc(c(-c5ccc(O)cc5)c5ccc2[nH]5)C=C4)C=C3)cc1 [Li-HK7]
Necrosis (after 10J/cm^2), depth ([2]; 25 μM/kg, DMSO, 656 nm): 3.31 ± 0.40 mm and 3.00 ± 0.72 mm and 3.00 ± 0.51 mm
Necrosis (after 10J/cm^2), depth ([2]; 50 μM/kg, DMSO, 656 nm): 2.46 ± 0.38 mm and 3.50 ± 0.41 mm
necrosis depth ([2]; 12.5 μm/kg): below 1.0 mm

Oc1ccc(-c2c3nc(c(-c4ccc(O)cc4)c4ccc([nH]4)c(-c4ccc(O)cc4)c4nc(c(-c5ccc(O)cc5)c5ccc2[nH]5)C=C4)C=C3)cc1 [Na-HK7]
Necrosis (after 10J/cm^2), depth ([2]; 25 μM/kg, DMSO, 656 nm): 2.28 ± 0.47 mm
Necrosis (after 10J/cm^2), depth ([2]; 50 μM/kg, DMSO, 656 nm): 2.80 ± 0.12 mm and 3.79 ± 0.29 mm
Necrosis (after 10J/cm^2), depth ([2]; 50 μM/kg, NaOH, 664 nm): 3.15 ± 0.83 mm
necrosis depth ([2]; 12.5 μm/kg): below 1.0 mm

Oc1cccc(-c2c3nc(c(-c4cccc(O)c4)c4ccc([nH]4)c(-c4cccc(O)c4)c4nc(c(-c5cccc(O)c5)c5ccc2[nH]5)C=C4)C=C3)c1 [meta-HK7]
effectiveness in DMSO versus alkali (in words) [1]: equally effective in both
effectiveness as photosensitiser for tumour tissue (in words) [1]: most active compound found
Necrosis (after 10J/cm^2), depth ([2]; 1.56 μM/kg, DMSO, 648 nm): 0.65 ± 0.22 mm
Necrosis (after 10J/cm^2), depth ([2]; 6.25 μM/kg, DMSO, 648 nm): 3.53 ± 0.49 mm and 2.88 ± 0.9 mm and 3.86 ± 0.18 mm
Necrosis (after 10J/cm^2), depth ([2]; 6.25 μM/kg, NaOH, 648 nm): 3.78 ± 0.36 mm and 3.64 ± 0.34 mm
Necrosis (after 10J/cm^2), depth ([2]; 12.5 μM/kg, DMSO, 648 nm): 4.44 ± 0.35 mm and 4.5 ± 0.5 mm
Necrosis (after 10J/cm^2), depth ([2]; 12.5 μM/kg, NaOH, 648 nm): 3.25 ± 0.33 mm
Necrosis (after 10J/cm^2), depth ([2]; 25.0 μM/kg, DMSO, 648 nm): 5.37 ± 0.55 mm
Necrosis (after 10J/cm^2), depth ([2]; 50.0 μM/kg, DMSO, 648 nm): 4.63 ± 0.64 mm
effectiveness in tumour necrosis (in words) ([2]; 1.56 μm/kg): some effect
effectiveness in tumour necrosis (in words) ([2]; 3.12 μm/kg): effective

Oc1ccccc1-c1c2nc(c(-c3ccccc3O)c3ccc([nH]3)c(-c3ccccc3O)c3nc(c(-c4ccccc4O)c4ccc1[nH]4)C=C3)C=C2 [ortho-HK7, 5,10,15,20-TETRA(o-HYDROXYPHENYL) PORPHYRIN]
Necrosis (after 10J/cm^2), depth ([2]; 6.25 μM/kg, DMSO, 648 nm): 2.45 ± 0.28 mm
Necrosis (after 10J/cm^2), depth ([2]; 12.5 μM/kg, DMSO, 648 nm): 3.03 ± 0.29 mm
Necrosis (after 10J/cm^2), depth ([2]; 25.0 μM/kg, DMSO, 648 nm): 4.21 ± 0.32 mm and 3.21 ± 0.56 mm
Necrosis (after 10J/cm^2), depth ([2]; 50.0 μM/kg, DMSO, 648 nm): 4.25 ± 0.50 mm

O=S(=O)(O)c1ccc(-c2c3nc(c(-c4ccc(S(=O)(=O)O)cc4)c4ccc([nH]4)c(-c4ccc(S(=O)(=O)O)cc4)c4nc(c(-c5ccc(S(=O)(=O)O)cc5)c5ccc2[nH]5)C=C4)C=C3)cc1 [tetra-(p-hydroxysulphonyl phenyl) porphyrin, reference compound]
necrosis depth ([2]; molar equivalent dose to HpD 67 μmol/kg, saline, 550 nm): 0.30±0.11 mm
